How the values were obtained:
[1] = target: CDK6 (Homo sapiens, UniProt Q00534); experiment: In vitro kinase assay with recombinant protein (32P-ATP, filtermat); type: biochemical; settings: recombinant CDK6, independent in vitro kinase assay, 20μM ATP
Experimental: Figure 1 ON108110 is a multi-kinase inhibitor (A) Structure of the ON108XXO benzo thiazolidinnes chemotype. (B) Structure of ON108110. (C) Calculation of IC50 values against CDK4 and CDK6 and (D) CK2α1 and CK2α2 by ON108110. Recombinant proteins were incubated with the indicated concentrations of ON108110 and subjected to in vitro kinase assays as described in the materials and methods section. Values obtained were plotted as a function of log drug concentration. IC50 values were determined by performing sigmoidal non-linear regression with a variable slope.
Initial testing of ON108110 against a panel of 285 functional kinases was performed by Reaction Biology Corp (Malvern, PA). Recombinant CDK4/CYCLIN D1 or CK2α1 were mixed with their respective synthetic peptide substrates (10ng) and incubated with DMSO or increasing concentrations of ON108110 in 20μl kinase buffer [50mM Tris-HCl (pH 7.5), 10mM MgCl2, 1mM EGTA, 2mM DTT and 0.01% NP-40] for 30 min. at room temperature. Kinase reactions were carried out for 20 min at 30°C in the presence of 5μl of substrate-ATP mixture (1μg RB, 20μM ATP, 20μCi γ-^32P-ATP). […] The filtermat was then air-dried and analyzed using a phosphoimager. Densitometric values were plotted as a function of log drug concentration using Prism 4 GraphPad software and the IC50 values determined by plotting sigmoidal non-linear regression curves with variable slope (n=3).

[2] = target: CK2α1 (Homo sapiens, UniProt P68400); experiment: Kinase panel profiling (Reaction Biology Corp); type: biochemical; settings: CK2α1, kinase inhibition profile
Experimental: (§1) Initial testing of ON108110 against a panel of 285 functional kinases was performed by Reaction Biology Corp (Malvern, PA). Recombinant CDK4/CYCLIN D1 or CK2α1 were mixed with their respective synthetic peptide substrates (10ng) and incubated with DMSO or increasing concentrations of ON108110 in 20μl kinase buffer [50mM Tris-HCl (pH 7.5), 10mM MgCl2, 1mM EGTA, 2mM DTT and 0.01% NP-40] for 30 min. at room temperature. Kinase reactions were carried out for 20 min at 30°C in the presence of 5μl of substrate-ATP mixture (1μg RB, 20μM ATP, 20μCi γ-^32P-ATP). The reactions were incubated at 30°C for 20 minutes, terminated by addition of 0.5M O-phosphoric acid and 10μl of the reaction mixture was spotted on P-30 Filtermat membranes (Wallac #1450-523). The filtermat was air-dried, blocked with methanol for 2 minutes followed by three washes with 75mM phosphoric acid. The filtermat was then air-dried and analyzed using a phosphoimager. Densitometric values were plotted as a function of log drug concentration using Prism 4 GraphPad software and the IC50 values determined by plotting sigmoidal non-linear regression curves with variable slope (n=3).

[3] = target: CDK5/P25 (Homo sapiens, UniProt Q00535); experiment: Kinase panel profiling (Reaction Biology Corp); type: biochemical; settings: CDK5/P25, kinase inhibition profile
Experimental: as §1

[4] = target: CDK6/CyclinD1 (Homo sapiens, UniProt Q00534); experiment: Kinase panel profiling (Reaction Biology Corp); type: biochemical; settings: CDK6/CyclinD1, kinase inhibition profile
Experimental: as §1

[5] = target: CDK6/CyclinD3 (Homo sapiens, UniProt Q00534); experiment: Kinase panel profiling (Reaction Biology Corp); type: biochemical; settings: CDK6/CyclinD3, kinase inhibition profile
Experimental: as §1

[6] = target: T1, recombinant CK2α1 kinase domain (Homo sapiens, UniProt P68400); experiment: Differential scanning fluorimetry (DSF); type: binding; settings: apo protein Tm 58°C
T1 construct: Amino acid residues 3-335 of CK2α1 were cloned using BamH1 and HindIII into pET28bsmt3-SUMO fusion vector; His6 (N, cleaved yes); SUMO (N, cleaved yes); made in house; host or cells: Escherichia coli BL21-DE3 (RIL)
Experimental: 1μM of in-house purified recombinant CK2α1 was diluted in protein buffer and added to a final concentration of 1X of Sypro Orange Dye in the presence of DMSO or increasing concentrations of ON108110. Following a 20 min incubation at room temperature, 20μl samples were pipetted into a clear MicroAmp Fast 96-well Reaction PCR plates and sealed with MicroAmp Optical Adhesive Film. The assay was performed using a StepOne Plus RT-PCR instrument (Applied Biosystems) using an increasing temperature gradient of 20 to 90°C in 0.2°C increments using a 200- millisecond stabilization delay. Florescence readings were acquired with excitation and emission wavelengths of 580±10 nm and 624±14 nm respectively. A customized analysis program (Step One Plus Protein Thermal Shift Software) was used to calculate the Tm from each fluorescence profile (Boltzmann method) and the Tm of the fluorescence (derivative method). Derivative Tm values were obtained from the top of the peak in the derivative plot, while the Boltzmann Tm values calculated from the inflection point of the fluorescence plot.

T1 sequence (P68400 3-335): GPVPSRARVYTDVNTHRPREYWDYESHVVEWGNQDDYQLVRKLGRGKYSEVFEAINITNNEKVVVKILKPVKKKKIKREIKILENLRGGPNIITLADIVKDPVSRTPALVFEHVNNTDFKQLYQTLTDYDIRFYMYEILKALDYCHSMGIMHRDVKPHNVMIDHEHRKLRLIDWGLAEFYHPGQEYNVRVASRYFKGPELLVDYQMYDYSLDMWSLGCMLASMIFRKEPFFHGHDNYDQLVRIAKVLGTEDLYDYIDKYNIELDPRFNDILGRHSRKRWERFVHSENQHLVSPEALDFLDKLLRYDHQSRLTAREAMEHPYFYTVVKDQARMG
Sequence of CK2α1 (P68400 whole entry): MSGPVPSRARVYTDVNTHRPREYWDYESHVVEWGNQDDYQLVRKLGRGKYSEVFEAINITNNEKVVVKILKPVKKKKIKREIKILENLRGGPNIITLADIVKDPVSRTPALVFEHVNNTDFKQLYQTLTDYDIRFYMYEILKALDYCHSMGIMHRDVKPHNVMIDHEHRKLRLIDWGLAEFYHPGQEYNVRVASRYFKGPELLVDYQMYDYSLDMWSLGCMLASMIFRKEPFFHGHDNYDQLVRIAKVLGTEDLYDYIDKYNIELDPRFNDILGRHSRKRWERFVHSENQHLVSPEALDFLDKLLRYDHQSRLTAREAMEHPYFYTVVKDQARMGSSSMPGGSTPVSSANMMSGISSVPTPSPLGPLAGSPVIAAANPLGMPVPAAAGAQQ
Sequence of CDK6/CyclinD3 (Q00534 whole entry): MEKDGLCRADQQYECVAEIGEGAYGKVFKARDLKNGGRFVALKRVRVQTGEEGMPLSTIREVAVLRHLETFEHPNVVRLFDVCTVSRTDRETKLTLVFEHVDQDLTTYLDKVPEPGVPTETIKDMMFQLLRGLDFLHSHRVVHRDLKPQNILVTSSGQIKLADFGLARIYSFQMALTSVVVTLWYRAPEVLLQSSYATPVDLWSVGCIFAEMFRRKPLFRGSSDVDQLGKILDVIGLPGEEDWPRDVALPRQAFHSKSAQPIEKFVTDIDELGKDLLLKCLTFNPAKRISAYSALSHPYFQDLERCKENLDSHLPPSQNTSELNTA
Sequence of CDK6/CyclinD3 (P30281 whole entry partner): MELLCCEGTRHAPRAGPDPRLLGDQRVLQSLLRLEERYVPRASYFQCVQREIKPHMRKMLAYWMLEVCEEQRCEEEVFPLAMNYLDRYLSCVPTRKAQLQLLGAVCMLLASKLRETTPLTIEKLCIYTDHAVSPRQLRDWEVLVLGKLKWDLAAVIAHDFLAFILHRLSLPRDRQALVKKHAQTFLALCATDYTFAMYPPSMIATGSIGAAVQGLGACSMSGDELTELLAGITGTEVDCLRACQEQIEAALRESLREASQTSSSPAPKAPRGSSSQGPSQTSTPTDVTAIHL
Sequence of CDK6 (Q00534 whole entry): as the sequence (Q00534 whole entry) above
Sequence of CDK6 (P24385 whole entry partner): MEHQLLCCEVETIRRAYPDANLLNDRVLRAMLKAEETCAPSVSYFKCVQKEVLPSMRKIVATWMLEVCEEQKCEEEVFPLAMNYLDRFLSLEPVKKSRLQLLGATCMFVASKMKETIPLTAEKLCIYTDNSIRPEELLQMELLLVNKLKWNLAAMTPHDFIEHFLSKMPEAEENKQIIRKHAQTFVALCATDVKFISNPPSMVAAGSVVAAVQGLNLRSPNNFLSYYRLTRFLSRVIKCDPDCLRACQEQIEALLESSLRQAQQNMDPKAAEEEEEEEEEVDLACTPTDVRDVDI
Sequence of CDK6/CyclinD1 (Q00534 whole entry): as the sequence (Q00534 whole entry) above
Sequence of CDK6/CyclinD1 (P24385 whole entry partner): as the sequence (P24385 whole entry partner) above
Sequence of CDK5/P25 (Q00535 whole entry): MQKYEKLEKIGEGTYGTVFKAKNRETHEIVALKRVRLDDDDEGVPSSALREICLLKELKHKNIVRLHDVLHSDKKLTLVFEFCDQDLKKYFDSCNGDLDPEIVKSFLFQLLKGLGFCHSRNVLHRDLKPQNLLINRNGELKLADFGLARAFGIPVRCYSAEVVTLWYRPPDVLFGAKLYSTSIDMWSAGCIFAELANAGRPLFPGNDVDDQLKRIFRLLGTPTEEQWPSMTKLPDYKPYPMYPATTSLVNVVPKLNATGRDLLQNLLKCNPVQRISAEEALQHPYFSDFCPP
Sequence of CDK5/P25 (Q15078 99-307 partner limits assumed): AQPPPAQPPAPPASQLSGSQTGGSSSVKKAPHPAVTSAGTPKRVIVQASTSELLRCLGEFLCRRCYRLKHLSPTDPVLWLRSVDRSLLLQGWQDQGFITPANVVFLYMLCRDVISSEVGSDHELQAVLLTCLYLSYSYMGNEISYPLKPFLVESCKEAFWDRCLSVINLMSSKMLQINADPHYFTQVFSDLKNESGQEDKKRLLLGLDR

CC(=O)Oc1ccc(/C=C2\Sc3ccc(F)cc3NC2=O)cc1[N+](=O)[O-] [ON108110]
IC50 [1]: 10 nM | IC50 [2]: 3 nM | IC50 [3]: 7 nM | IC50 [4]: 2 nM | IC50 [5]: 24 nM | melting temperature (Tm) of CK2α1 with compound [6]: 64.8 °C | shift in the Tm of CK2α1 [6]: 6.8 °C

Source: publication PMC6340882, “Targeting protein kinase CK2 and CDK4/6 pathways with a multi-kinase inhibitor ON108110 suppresses pro-survival signaling and growth in mantle cell lymphoma and T-acute lymphoblastic leukemia” (Oncotarget, 2018)
